Test results taken from patent US4661297A, “Basic ethers of 7-oxo-7H-benzo(c) fluorene and a process for their production” (SPOFA, spojene podniky pro zdravotnickou vyrobu, priority 1980, dated 1987).

Columns and labels:
L1210 leukaemia = assay: Effect on course of transplanted L1210 leukaemia in mice; type: in vivo, mouse (hybrid DBA/H); settings: days 1;5;8;12;15;19
Description: (§1) The therapeutic effect of the described compounds on transplanted tumors in experimental animals is shown in Tables 1-3, on the following five pages.
(§2) &=statistically significant differences versus control at P=0.05
L1210 : Leukaemia growing in the form of ascitic tumors in hybrid DBA/H mice

Yoshida's Tumor = assay: Inhibition of incorporation of labelled substrates in Yoshida's tumor; type: cell-based; settings: Rattus norvegicus, (U-14C) amino acid mixture, Table VI, read-out: IC50 (concentration lowering initial rate of 14C incorporation to 50% of control)
Description: Tumor growth may be observed clinically or in experiments in vivo, that is, with experimental animals, or in vitro, for example, in tissue cultures prepared from tumors. Assessment of tumor growth may be effected by measuring the weight of the tumor mass or, more effectively, by measuring the radioactivity after incorporation therein of certain substances of natural origin such as amino acids, adenine, thymidine and the like labelled with radioactive atoms such as ^14 C, ^3 H, etc.
Thus, by way of exemplification, the IC^50 values (inhibitory concentration which lowered the initial rate of ^14 C incorporation to 50% of control) are shown in Table VI, below (Yoshida's Tumor, (U-^14 C) amino acid mixture)
The ^IC 50 values of compound 13468 are also shown in Table VII with varying substrates.

Sa37 ascitic tumor = assay: Effect on course of transplanted Sa37 ascitic tumor in mice; type: in vivo, mouse (H); settings: p.o. 3×75 mg/kg, days 1,4,7
Description: as §1, §2
Sa37 : Ascitic tumors in H mice

La leukaemia = assay: Effect on course of transplanted La leukaemia in mice; type: in vivo, mouse (C57 Bl)
Description: as §1, §2
La: La leukaemia in mice C57 Bl

Yoshida's ascitic tumor = assay: Effect on course of transplanted Yoshida's ascitic tumor in rats; type: in vivo, rat (Wistar); settings: for % of animals surviving day 35 after transplantation: control K = 0%
Description: as §1, §2
Y: Yoshida's ascitic tumor in Wistar rats

[1] = test system: EST: Ehrlich's solid tumor; assay: Effect on course of transplanted Ehrlich's solid tumor in mice; type: in vivo, mouse (H); settings: days 5,7,9,12; for Relative tumour size (% of control value): assessed day 14
Description: as §1, §2
EST: Ehrlich's solid tumor in H mice

Acute toxicity in mice = settings: mouse, in vivo, sc; subcutaneously; mice S, males 22-24 gram
Description: The anti-tumor compounds described herein have also been studied from the standpoint of toxicity and the conclusion drawn that they are not toxic to mammalian hosts. The toxicological data set forth in Table IX, below, supports this conclusion.

[2] = test system: Kr2: Krebs' ascitic tumor; assay: Effect on course of transplanted Krebs' ascitic tumor in mice; type: in vivo, mouse (H); settings: p.o. 2×150 mg/kg, days 1,8, significant (&)
Description: as §1, §2
Kr2 : Krebs' ascitic tumor in H mice

[3] = test system: HK: solid tumors, originally spontaneous mammary-gland adenocarcinoma; assay: Effect on course of transplanted HK solid mammary-gland adenocarcinoma in mice; type: in vivo, mouse (H); settings: for Relative tumour size (% of control value): assessed day 14
Description: as §1, §2
HK: Solid tumors, originally spontaneous mammary-gland adenocarcinoma in H mice

[4] = o. (oral) 3×50 mg/kg, days 1,4,8, significant (&)
[5] = o. (oral) 3×75 mg/kg, days 1,4,8, significant (&)
[6] = p.o. 4×100 mg/kg, significant (&)
[7] = p.o. 2×150 mg/kg, days 5,12, significant (&)
[8] = p.o. 4×100 mg/kg, days 5,7,9,12, significant (&)

SMILES: CN(C)CCCOc1cc2c(c3ccccc13)-c1ccccc1C2=O.Cl [compound 13466, 5-(3-Dimethylaminopropoxy)-7-oxo-7H-benzo(c) fluorene hydrochloride]
- Survival time of animals with respect to median (L1210 leukaemia; s.c. 6×50 mg/kg, significant (&)): 117%
- Survival time of animals with respect to median (L1210 leukaemia; s.c. 6×75 mg/kg, significant (&)): 142%
- Survival time of animals with respect to median (L1210 leukaemia; s.c. 6×100 mg/kg, significant (&)): 142%
- Survival time of animals with respect to median (L1210 leukaemia; s.c. 6×125 mg/kg, marked ^): 168%
- IC50 (Yoshida's Tumor): 120 µM
- Relative tumour size (% of control value) (Sa37 ascitic tumor; assessed day 10, marked ^): 92%
- Survival time of animals with respect to geom. mean (Sa37 ascitic tumor; significant (&)): 123%
- Survival time of animals with respect to median (La leukaemia; s.c. 1×200 mg/kg, day 3 after transplantation, significant vs control (&, P=0.05)): 113%
- Survival time of animals with respect to median (La leukaemia; s.c. 1×250 mg/kg, day 3, significant (&)): 500%
- % of animals surviving day 35 after transplantation (Yoshida's ascitic tumor; [4]): 50%
- Survival time of animals with respect to geom. mean (Yoshida's ascitic tumor; [4]): 152%
- % of animals surviving day 35 after transplantation (Yoshida's ascitic tumor; [5]): 40%
- Survival time of animals with respect to geom. mean (Yoshida's ascitic tumor; [5]): 140%
- Survival time of animals with respect to geom. mean (Yoshida's ascitic tumor; o. (oral) 5×100 mg/kg, days 1-5, Table III, significant (&)): 135%
- Survival time of animals with respect to geom. mean (Yoshida's ascitic tumor; o. (oral) 5×100 mg/kg, days 1-5, Tables I and II, significant (&)): 135%
- Survival time of animals with respect to geom. mean (Yoshida's ascitic tumor; s.c. 5×50 mg/kg, days 1-5, Table III, marked ^): 103%
- Survival time of animals with respect to geom. mean (Yoshida's ascitic tumor; s.c. 5×50 mg/kg, days 1-5, Tables I and II, significant (&)): 177%
- Relative tumour size (% of control value) ([1]; p.o. 4×50 mg/kg, marked ^): 77%
- Survival time of animals with respect to geom. mean ([1]; p.o. 4×50 mg/kg, significant (&)): 135%
- Relative tumour size (% of control value) [1, 6]: 70%
- Survival time of animals with respect to geom. mean [1, 6]: 134%
- LD50 (Acute toxicity in mice): 320 mg/kg
- Relative tumour size (% of control value) ([2]; assessed day 10): 62%
- Survival time of animals with respect to geom. mean [2]: 128%
- Survival time of animals with respect to geom. mean ([3]; o. (oral) 8×50 mg/kg, days 5-10,12,13, Table I, significant (&)): 131%
- Relative tumour size (% of control value) ([3]; o. (oral) 8×50 mg/kg, days 5-10,12,13, Table I): 82%
- Relative tumour size (% of control value) ([3]; o. (oral) 8×100 mg/kg, days 5-10,12,13): 76%
- Survival time of animals with respect to geom. mean ([3]; o. (oral) 8×100 mg/kg, days 5-10,12,13, significant (&)): 112%
- Relative tumour size (% of control value) [3, 7]: 65%
- Survival time of animals with respect to geom. mean [3, 7]: 123%
- Relative tumour size (% of control value) [3, 8]: 48%
- Survival time of animals with respect to geom. mean [3, 8]: 125%
- Survival time of animals with respect to geom. mean ([3]; p.o. 8×50 mg/kg, days 5-10,12,13, Table III, marked ^): 102%
- Relative tumour size (% of control value) ([3]; p.o. 8×50 mg/kg, days 5-10,12,13, Table III, significant (&)): 73%
- Survival time of animals with respect to geom. mean ([3]; s.c. 8×50 mg/kg, days 5-10,12,13, Table I, significant (&)): 121%
- Survival time of animals with respect to geom. mean ([3]; s.c. 8×50 mg/kg, days 5-10,12,13, Table III, marked ^): 107%
- Relative tumour size (% of control value) ([3]; s.c. 8×50 mg/kg, days 5-10,12,13, Table I): 66%
- Relative tumour size (% of control value) ([3]; s.c. 8×50 mg/kg, days 5-10,12,13, Table III, significant (&)): 58%
